Assay [1] concerns the target T1, APN (Leucin aminopeptidase, microsomal, EC 3.4.11.2) (Sus scrofa, UniProt P15145).
T1 construct: purchased Sigma; host or cells: pig kidney (tissue-derived)
T1 sequence (P15145 1-963): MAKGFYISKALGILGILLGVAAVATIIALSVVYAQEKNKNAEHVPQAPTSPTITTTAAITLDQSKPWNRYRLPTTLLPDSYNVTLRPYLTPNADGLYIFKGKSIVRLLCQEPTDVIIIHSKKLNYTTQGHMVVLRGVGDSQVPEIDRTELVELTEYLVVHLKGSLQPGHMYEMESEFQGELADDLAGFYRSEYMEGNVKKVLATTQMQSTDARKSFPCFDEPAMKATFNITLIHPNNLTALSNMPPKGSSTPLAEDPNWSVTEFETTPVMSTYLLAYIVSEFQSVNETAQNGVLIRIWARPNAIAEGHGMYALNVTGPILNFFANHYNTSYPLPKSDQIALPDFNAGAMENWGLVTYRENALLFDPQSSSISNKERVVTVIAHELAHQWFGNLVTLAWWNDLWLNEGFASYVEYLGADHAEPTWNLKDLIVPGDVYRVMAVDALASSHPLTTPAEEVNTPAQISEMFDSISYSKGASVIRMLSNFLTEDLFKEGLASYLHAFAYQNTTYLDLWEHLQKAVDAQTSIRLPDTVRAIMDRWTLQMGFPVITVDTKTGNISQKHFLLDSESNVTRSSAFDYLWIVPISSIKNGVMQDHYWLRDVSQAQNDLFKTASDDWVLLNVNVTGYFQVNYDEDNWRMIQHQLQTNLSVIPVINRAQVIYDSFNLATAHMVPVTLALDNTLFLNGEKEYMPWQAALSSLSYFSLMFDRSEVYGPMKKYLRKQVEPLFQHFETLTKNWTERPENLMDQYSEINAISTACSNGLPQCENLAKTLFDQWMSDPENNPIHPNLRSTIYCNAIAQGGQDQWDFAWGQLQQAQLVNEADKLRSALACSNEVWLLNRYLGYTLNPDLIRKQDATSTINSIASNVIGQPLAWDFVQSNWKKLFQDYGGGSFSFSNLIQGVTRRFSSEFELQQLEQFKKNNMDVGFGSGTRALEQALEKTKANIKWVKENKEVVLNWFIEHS
Briefly: IC50 determination against APN after reduction of the prodrugs with DTT. The settings on record: after release (reduction with DTT) of the inhibitors from the prodrugs; pig kidney enzyme, substrate Leu-AMC, pH 7.2, 30° C.; read-out: APN (IC 50 [M]). It counts as biochemical. The procedure:
(§1) Process of the Reduction with DTT:
(§2) Same volumes of the 7·10^−2 M solution of the inhibitor in water or DMF and a 0.35 M aqueous DTT-solution (5 equivalents) were agitated 4 hours at RT.
(§3) Subsequently to the reductive treatment of the prodrugs the IC50-values were estimated using the following process:
(§4) Determination of the IC50-Values after Reduction:
Leucin aminopeptidase, microsomal, from pig kidney (EC 3.4.11.2).
Suspension in 3.5 M (NH4)2SO4-solution (Sigma).
Substrate: Leu-AMC, [S]=1.5·10^−4 M (2 Km) in the reaction batch.
Buffer: 40 mM Tris/HCl-buffer, pH 7.2 in the reaction batch. […]
60 μl of these inhibitor solutions each or water (standard), were incubated with 80 μl of the according diluted enzymes in buffer for 15 minutes at 30° C. and subsequently 60 μl of the according AMC-substrate in water (total volume 200 μl) were added. The release of the 7-Amino-4-methyl-cumarin was traced continuously over a period of 20 minutes at 30° C. using a fluorence-pladt-reader NOVOstar (BMG Labtechnologies). The enzyme concentration was chosen to give a linear increase of the fluorescence during the measuring period.
The excitation- and emission-wavelengths, respectively, were 390 and 460 nm. […] The turn-over rates (increase of fluorescence/minutes) were plotted against the concentration of the inhibitor and the IC50-values were calculated using the computer program GraFit. […]

Assay [2] has as its target T2, Dipeptidyl peptidase IV (EC 3.4.14.5.) (Sus scrofa, UniProt P22411).
T2 construct: purchased Sigma; host or cells: pig kidney (tissue-derived)
Briefly: IC50 determination against DP IV after reduction of the prodrugs with DTT. It is filed as biochemical. The settings on record: after release (reduction with DTT) of the inhibitors from the prodrugs; pig kidney enzyme, substrate Ala-Pro-AMC, pH 7.6, 30° C.; read-out: DP IV (IC 50 [M]). As for the experimental part:
as §1, §2, §3, §4
Dipeptidyl peptidase IV from pig kidney (EC 3.4.14.5.), lyophilisated powder (Sigma).
Substrate: Ala-Pro-AMC, [S]=3·10^−5 M (2 Km) in the reaction batch.
Buffer: 40 mM Tris/HCl-buffer, pH 7.6, I=0.125 in the reaction batch.
By dilution with water 10 to 12 solutions with defined inhibitor concentration were prepared from the reduction batch. These were selected from a relevant concentration range, i.e. between complete inhibition and non-influenced enzyme activity.
60 μl of these inhibitor solutions each or water (standard), were incubated with 80 μl of the according diluted enzymes in buffer for 15 minutes at 30° C. and subsequently 60 μl of the according AMC-substrate in water (total volume 200 μl) were added. The release of the 7-Amino-4-methyl-cumarin was traced continuously over a period of 20 minutes at 30° C. using a fluorence-pladt-reader NOVOstar (BMG Labtechnologies). The enzyme concentration was chosen to give a linear increase of the fluorescence during the measuring period. […]

T2 sequence (P22411 whole entry): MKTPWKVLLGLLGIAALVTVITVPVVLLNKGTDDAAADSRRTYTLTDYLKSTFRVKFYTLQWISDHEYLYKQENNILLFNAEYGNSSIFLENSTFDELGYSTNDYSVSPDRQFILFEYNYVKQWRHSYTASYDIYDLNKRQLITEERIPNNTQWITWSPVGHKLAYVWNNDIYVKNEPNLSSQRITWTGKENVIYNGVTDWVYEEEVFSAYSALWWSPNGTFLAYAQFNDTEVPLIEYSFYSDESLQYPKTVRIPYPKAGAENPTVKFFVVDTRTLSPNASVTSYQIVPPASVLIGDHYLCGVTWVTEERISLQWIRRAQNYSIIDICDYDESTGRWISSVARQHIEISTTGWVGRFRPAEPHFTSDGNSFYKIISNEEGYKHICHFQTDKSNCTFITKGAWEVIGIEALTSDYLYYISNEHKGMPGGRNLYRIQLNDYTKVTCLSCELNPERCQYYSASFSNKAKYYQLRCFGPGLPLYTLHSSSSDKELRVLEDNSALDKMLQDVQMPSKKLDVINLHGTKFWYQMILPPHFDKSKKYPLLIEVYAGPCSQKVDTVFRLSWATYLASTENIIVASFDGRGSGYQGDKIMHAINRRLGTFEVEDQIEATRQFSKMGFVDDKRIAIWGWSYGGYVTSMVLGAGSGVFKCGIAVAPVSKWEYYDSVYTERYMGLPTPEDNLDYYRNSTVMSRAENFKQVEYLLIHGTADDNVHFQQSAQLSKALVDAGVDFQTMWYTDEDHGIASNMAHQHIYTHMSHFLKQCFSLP

On to `CCCCC[C@H](CC(=O)NO)C(=O)N[C@H](C(=O)N1CCC[C@H]1CO)C(C)C` [Actinonine, actinonine], for which, in assay [1], the IC50 stood at 3.02e-07 M.
Consider `NC(CCCCNC(=O)OCc1ccc([N+](=O)[O-])cc1)C(=O)N1CCSC1` (centres unmarked) [Lys[Z(NO2)]-thiazolidide, H-Lys[Z(NO2)]-thiazolidide], for which the IC50 in assay [2] was found to be 4.34e-07 M.

Values taken from patent publication US8470855B2, “Dual-use peptidase inhibitors as prodrugs for a therapy of inflammatory and other diseases” (IMTM GmbH, priority 2005, dated 2013).
